Laboratory results published in paper PMC6151529, “Design, Synthesis and Biological Evaluation of N,N-Substituted Amine Derivatives as Cholesteryl Ester Transfer Protein Inhibitors” (Molecules : A Journal of Synthetic Chemistry and Natural …, 2017).

Molecular target: T1, CETP (Homo sapiens, UniProt P11597)
T1 construct: purchased Roar, New York, NY, USA RB-RPAK
T1 sequence (P11597 18-493): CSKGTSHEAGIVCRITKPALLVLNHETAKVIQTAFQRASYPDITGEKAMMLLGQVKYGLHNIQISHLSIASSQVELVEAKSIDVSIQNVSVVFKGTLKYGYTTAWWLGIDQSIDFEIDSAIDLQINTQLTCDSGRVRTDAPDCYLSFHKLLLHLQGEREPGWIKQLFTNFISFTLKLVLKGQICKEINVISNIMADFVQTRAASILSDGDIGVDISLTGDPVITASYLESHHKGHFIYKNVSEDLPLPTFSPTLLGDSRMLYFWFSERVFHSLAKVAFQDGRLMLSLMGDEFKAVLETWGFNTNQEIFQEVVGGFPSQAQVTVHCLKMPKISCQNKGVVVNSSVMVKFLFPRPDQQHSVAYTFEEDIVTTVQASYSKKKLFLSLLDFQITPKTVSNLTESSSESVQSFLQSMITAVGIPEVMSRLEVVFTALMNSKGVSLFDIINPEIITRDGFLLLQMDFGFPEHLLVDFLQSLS
Test: CETP inhibitory activity, BODIPY-CE fluorescence assay (CETP RP Activity Assay Kit)
Format: biochemical
Conditions: read-out: IC50 (CETP inhibition)
Procedure: All tested compounds were dissolved in 100% DMSO, making sure the compound was dissolved totally. The solution was vibrated hard on an oscillator for more than 30 s and then stored in a nitrogen cabinet. The stock solutions (10 mM) were diluted with DMSO for an 8-point titration (1:5 serial dilutions) in a 96-well dilution plate. […] Compounds were tested at eight concentrations, and the fluorescence intensity were measured using a fluorometer (ExEm = 465/535 nm). The IC50 was determined from a curve fit of the data with each concentration tested three times.

SMILES | IC50
COc1ccc(C(C)C)cc1C1=C(CN(Cc2cc(C(F)(F)F)cc(C(F)(F)F)c2)c2nn[nH]n2)CC(C)(C)CC1 [Compound 12, N-(3,5-Bis(trifluoromethyl)benzyl)-N-((2-(5-isopropyl-2-methoxyphenyl)-5,5-dimethylcyclohex-1-enyl)-methyl)-2H-tetrazol-5-amine] | 2.84 ± 0.04 µM
COC(=O)Cn1nnc(N(CC2=C(c3cc(C(C)C)ccc3OC)CCC(C)(C)C2)Cc2cc(C(F)(F)F)cc(C(F)(F)F)c2)n1 [Compound 13] | > 50 µM
CCOC(=O)CCCn1nnc(N(CC2=C(c3cc(C(C)C)ccc3OC)CCC(C)(C)C2)Cc2cc(C(F)(F)F)cc(C(F)(F)F)c2)n1 [Compound 14, N-(3,5-Bis(trifluoromethyl)benzyl)-N-((2-(5-isopropyl-2-methoxyphenyl)-5,5-dimethylcyclohex-1-enyl)-methyl)-2H-tetrazol-5-amine-2-butyric acid ethyl ester] | > 50 µM
COc1ccc(C(C)C)cc1C1=C(CN(Cc2cc(C(F)(F)F)cc(C(F)(F)F)c2)c2nnn(CCN)n2)CC(C)(C)CC1 [Compound 15, 2-(2-Aminoethyl)-N-(3,5-Bis(trifluoromethyl)benzyl)-N-((2-(5-isopropyl-2-methoxyphenyl)-5,5-dimethyl-cyclohex-1-enyl)methyl)-2H-tetrazol-5-amine] | 1.92 ± 0.1 µM
COc1ccc(C(C)C)cc1C1=C(CN(Cc2cc(C(F)(F)F)cc(C(F)(F)F)c2)c2nnn(CCS(C)(=O)=O)n2)CC(C)(C)CC1 [Compound 16, N-(3,5-Bis(trifluoromethyl)benzyl)-N-((2-(5-isopropyl-2-methoxyphenyl)-5,5-dimethylcyclohex-1-enyl)-methyl)-2-(2-(methylsulfonyl)ethyl)-2H-tetrazol-5-amine] | 1.2 ± 0.01 µM
COc1ccc(C(C)C)cc1C1=C(CN(Cc2cc(C(F)(F)F)cc(C(F)(F)F)c2)c2nnn(CCCC(=O)O)n2)CC(C)(C)CC1 [Compound 18, N-(3,5-Bis(trifluoromethyl)benzyl)-N-((2-(5-isopropyl-2-methoxyphenyl)-5,5-dimethylcyclohex-1-enyl)-methyl)-2H-tetrazol-5-amine-2-butyric acid] | 1.6 ± 0.02 µM
COc1ccc(C(C)C)cc1C1=C(CN(Cc2cc(C(F)(F)F)cc(C(F)(F)F)c2)c2nnn(CCO)n2)CC(C)(C)CC1 [Compound 19, N-(3,5-Bis(trifluoromethyl)benzyl)-N-((2-(5-isopropyl-2-methoxyphenyl)-5,5-dimethylcyclohex-1-enyl)-methyl)-2H-tetrazol-5-amine-2-ethyl alcohol] | 0.73 ± 0.09 µM
COc1ccc(C(C)C)cc1C1=C(CN(Cc2cc(C(F)(F)F)cc(C(F)(F)F)c2)c2nnn(CCCCO)n2)CC(C)(C)CC1 [Compound 20] | 5.76 ± 0.03 µM
COc1ccc(C(C)C)cc1C1=C(CN(Cc2cc(C(F)(F)F)cc(C(F)(F)F)c2)c2nnn(CC(N)=O)n2)CC(C)(C)CC1 [Compound 21, 2-(5-((3,5-Bis(trifluoromethyl)benzyl)((2-(5-isopropyl-2-methoxyphenyl)-5,5-dimethylcyclohex-1-enyl)-methyl)amino)-2H-tetrazol-2-yl)acetamide] | 20.06 ± 0.12 µM
COc1ccc(C(C)C)cc1C1=C(CN(Cc2cc(C(F)(F)F)cc(C(F)(F)F)c2)c2noc(C)n2)CC(C)(C)CC1 [Compound 22, N-(3,5-Bis(trifluoromethyl)benzyl)-N-((2-(5-isopropyl-2-methoxyphenyl)-5,5-dimethylcyclohex-1-enyl)-methyl)-5-methyl-1,2,4-oxadiazol-3-amine] | 0.72 ± 0.06 µM
COc1ccc(C(C)C)cc1C1=C(CN(Cc2cc(C(F)(F)F)cc(C(F)(F)F)c2)C2CCN(CCO)CC2)CC(C)(C)CC1 [Compound 32, N-(3,5-Bis(trifluoromethyl)benzyl)-N-((2-(5-isopropyl-2-methoxyphenyl)-5,5-dimethylcyclohex-1-enyl)-methyl)piperidin-4-amine-1-ethyl alcohol] | > 50 µM
